Test results reported in ChEMBL document CHEMBL2331421, “Amino acid derived quinazolines as Rock/PKA inhibitors” (Bioorg Med Chem Lett, 2013).
pIC50: −log10 of the molar value. One block for each compound: values may come before it.

Experiments:
[1] = target: Rho-associated protein kinase 2 (Homo sapiens, UniProt O75116); assay: Inhibition of human recombinant 6-His-tagged ROCK2 expressed in baculovirus-infected Sf9 cells using LCB-AKRRRLSSLRA-NH2 as substrate after 25 mins by TR-FRET assay
[2] = Inhibition of PKA (unknown origin); set-up: species or system Homo sapiens
CYP2D6 = CYP2D6 (Homo sapiens, UniProt P10635); assay: Inhibition of CYP2D6 (unknown origin) at 10 uM relative to control; type: ADME
[3] = target: Mitogen-activated protein kinase 8 (Homo sapiens, UniProt P45983); assay: Inhibition of JNK1 (unknown origin)
CYP2C9 = CYP2C9 (Homo sapiens, UniProt P11712); assay: Inhibition of CYP2C9 (unknown origin) at 10 uM relative to control; type: ADME
[4] = target: Rho-associated protein kinase 1 (Homo sapiens, UniProt Q13464); assay: Inhibition of ROCK1 (unknown origin)
[5] = target: Mitogen-activated protein kinase 9 (Homo sapiens, UniProt P45984); assay: Inhibition of JNK2 (unknown origin)
CYP1A2 = target: T1, CYP1A2 (Homo sapiens, UniProt P05177); assay: Inhibition of CYP1A2 (unknown origin) at 10 uM relative to control; type: ADME
T1 sequence (P05177 whole entry): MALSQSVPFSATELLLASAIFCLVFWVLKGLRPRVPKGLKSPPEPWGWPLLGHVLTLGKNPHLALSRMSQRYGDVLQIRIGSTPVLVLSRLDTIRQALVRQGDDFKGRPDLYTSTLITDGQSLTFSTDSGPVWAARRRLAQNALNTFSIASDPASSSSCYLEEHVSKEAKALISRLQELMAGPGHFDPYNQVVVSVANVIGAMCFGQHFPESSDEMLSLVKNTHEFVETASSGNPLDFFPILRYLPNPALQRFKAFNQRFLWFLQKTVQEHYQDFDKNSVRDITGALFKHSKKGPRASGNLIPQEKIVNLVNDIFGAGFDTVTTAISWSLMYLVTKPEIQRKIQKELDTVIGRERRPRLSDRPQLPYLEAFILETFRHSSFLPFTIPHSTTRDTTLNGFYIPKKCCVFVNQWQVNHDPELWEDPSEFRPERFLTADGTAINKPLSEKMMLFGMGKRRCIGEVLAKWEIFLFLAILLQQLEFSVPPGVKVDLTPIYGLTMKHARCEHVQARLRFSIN

CYP3A4 = CYP3A4 (Homo sapiens, UniProt P08684); assay: Inhibition of CYP3A4 (unknown origin) at 10 uM relative to control; type: ADME
[6] = target: Mitogen-activated protein kinase 14 (Homo sapiens, UniProt Q16539); assay: Inhibition of p38alpha (unknown origin)
[7] = Half life in human liver microsomes; type: ADME, Microsome
[8] = target: Serine/threonine-protein kinase MRCK alpha (Homo sapiens, UniProt Q5VT25); assay: Inhibition of MRCKalpha (unknown origin)
[9] = target: Mitogen-activated protein kinase 10 (Homo sapiens, UniProt P53779); assay: Inhibition of JNK3 (unknown origin)
[10] = Inhibition of ROCK in rat A7r5 cells assessed as inhibition of myosin light chain bisphosphorylation by Western blot analysis; type: cell-based

Sequence of CYP3A4 (P08684 whole entry): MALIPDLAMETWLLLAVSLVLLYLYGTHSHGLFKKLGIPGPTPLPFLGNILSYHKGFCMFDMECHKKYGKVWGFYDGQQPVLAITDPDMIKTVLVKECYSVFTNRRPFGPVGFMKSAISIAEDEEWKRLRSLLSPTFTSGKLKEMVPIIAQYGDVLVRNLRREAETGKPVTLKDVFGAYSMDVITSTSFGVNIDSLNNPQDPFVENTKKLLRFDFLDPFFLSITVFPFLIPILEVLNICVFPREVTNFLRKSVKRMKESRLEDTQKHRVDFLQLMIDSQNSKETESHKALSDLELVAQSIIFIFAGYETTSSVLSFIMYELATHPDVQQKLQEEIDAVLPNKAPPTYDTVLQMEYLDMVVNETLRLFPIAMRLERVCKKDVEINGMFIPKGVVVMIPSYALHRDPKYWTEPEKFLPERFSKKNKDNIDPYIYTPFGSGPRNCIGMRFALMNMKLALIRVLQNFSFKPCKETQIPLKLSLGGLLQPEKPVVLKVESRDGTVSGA
Sequence of Mitogen-activated protein kinase 10 (P53779 whole entry): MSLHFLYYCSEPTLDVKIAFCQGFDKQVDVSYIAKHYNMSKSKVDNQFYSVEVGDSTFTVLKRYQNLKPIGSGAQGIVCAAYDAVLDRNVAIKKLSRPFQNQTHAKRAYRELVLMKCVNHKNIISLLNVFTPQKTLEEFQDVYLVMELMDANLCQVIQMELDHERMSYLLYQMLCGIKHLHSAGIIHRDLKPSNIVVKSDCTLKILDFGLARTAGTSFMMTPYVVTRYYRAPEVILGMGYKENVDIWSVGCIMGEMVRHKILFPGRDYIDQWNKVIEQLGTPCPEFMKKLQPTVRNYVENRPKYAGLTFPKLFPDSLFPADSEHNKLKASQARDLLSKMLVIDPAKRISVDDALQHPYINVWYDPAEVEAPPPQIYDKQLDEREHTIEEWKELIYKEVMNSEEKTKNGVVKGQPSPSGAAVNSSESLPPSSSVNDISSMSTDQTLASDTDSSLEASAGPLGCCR
Sequence of Mitogen-activated protein kinase 9 (P45984 whole entry): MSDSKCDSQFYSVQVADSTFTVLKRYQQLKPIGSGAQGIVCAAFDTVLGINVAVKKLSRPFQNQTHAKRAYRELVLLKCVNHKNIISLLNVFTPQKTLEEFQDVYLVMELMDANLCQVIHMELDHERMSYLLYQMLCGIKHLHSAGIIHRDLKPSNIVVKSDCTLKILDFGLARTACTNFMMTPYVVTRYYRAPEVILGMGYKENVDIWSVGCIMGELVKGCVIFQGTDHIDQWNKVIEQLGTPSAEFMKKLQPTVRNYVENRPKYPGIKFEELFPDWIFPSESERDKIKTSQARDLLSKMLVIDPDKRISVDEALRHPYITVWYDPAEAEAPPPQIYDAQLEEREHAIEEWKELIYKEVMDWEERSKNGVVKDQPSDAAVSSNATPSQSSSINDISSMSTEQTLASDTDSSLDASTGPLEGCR
Sequence of Mitogen-activated protein kinase 8 (P45983 whole entry): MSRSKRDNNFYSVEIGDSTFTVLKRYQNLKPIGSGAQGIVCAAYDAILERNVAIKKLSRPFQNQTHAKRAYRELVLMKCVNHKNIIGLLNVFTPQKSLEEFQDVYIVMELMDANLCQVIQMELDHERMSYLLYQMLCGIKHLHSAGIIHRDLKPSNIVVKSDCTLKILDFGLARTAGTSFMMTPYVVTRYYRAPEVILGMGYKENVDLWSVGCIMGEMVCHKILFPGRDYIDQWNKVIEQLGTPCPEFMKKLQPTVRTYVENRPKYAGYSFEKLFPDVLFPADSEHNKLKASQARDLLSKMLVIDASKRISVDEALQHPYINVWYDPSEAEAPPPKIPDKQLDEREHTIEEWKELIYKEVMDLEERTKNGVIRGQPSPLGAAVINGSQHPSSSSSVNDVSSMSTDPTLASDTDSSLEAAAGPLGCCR
Sequence of CYP2D6 (P10635 whole entry): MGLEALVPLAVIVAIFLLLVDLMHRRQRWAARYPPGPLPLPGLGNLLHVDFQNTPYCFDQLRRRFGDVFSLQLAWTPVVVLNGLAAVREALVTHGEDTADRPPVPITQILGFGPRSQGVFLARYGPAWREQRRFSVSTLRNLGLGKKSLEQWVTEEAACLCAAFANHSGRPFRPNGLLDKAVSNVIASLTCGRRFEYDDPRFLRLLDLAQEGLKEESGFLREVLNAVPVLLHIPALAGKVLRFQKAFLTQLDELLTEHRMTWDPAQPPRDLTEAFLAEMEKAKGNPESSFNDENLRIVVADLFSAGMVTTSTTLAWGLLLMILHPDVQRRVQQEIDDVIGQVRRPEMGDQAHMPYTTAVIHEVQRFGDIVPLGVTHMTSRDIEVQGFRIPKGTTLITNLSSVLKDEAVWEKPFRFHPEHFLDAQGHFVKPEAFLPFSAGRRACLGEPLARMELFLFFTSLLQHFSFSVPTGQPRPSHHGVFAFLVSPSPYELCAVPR
Sequence of Mitogen-activated protein kinase 14 (Q16539 whole entry): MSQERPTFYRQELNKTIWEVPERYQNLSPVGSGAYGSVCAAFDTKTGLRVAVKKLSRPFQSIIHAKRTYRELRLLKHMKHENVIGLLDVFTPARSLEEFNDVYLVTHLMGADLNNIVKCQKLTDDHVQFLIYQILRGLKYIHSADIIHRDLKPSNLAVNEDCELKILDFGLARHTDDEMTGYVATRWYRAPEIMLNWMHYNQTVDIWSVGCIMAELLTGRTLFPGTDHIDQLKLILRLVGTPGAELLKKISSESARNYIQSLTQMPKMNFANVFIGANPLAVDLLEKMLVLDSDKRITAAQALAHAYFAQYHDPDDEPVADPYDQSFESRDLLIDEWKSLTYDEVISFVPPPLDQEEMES
Sequence of CYP2C9 (P11712 whole entry): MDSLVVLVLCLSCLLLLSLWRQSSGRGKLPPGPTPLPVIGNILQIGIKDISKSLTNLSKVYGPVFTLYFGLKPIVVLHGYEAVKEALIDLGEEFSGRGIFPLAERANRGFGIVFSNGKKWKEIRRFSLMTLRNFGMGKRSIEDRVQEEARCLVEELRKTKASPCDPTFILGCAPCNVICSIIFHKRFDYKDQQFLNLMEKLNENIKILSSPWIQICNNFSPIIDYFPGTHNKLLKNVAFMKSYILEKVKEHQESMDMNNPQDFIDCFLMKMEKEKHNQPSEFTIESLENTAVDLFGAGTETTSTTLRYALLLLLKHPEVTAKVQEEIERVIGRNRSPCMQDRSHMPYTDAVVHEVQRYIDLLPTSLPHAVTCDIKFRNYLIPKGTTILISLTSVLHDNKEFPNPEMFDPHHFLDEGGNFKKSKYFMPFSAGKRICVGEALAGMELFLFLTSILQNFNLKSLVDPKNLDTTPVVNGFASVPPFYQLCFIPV
Sequence of Rho-associated protein kinase 2 (O75116 whole entry): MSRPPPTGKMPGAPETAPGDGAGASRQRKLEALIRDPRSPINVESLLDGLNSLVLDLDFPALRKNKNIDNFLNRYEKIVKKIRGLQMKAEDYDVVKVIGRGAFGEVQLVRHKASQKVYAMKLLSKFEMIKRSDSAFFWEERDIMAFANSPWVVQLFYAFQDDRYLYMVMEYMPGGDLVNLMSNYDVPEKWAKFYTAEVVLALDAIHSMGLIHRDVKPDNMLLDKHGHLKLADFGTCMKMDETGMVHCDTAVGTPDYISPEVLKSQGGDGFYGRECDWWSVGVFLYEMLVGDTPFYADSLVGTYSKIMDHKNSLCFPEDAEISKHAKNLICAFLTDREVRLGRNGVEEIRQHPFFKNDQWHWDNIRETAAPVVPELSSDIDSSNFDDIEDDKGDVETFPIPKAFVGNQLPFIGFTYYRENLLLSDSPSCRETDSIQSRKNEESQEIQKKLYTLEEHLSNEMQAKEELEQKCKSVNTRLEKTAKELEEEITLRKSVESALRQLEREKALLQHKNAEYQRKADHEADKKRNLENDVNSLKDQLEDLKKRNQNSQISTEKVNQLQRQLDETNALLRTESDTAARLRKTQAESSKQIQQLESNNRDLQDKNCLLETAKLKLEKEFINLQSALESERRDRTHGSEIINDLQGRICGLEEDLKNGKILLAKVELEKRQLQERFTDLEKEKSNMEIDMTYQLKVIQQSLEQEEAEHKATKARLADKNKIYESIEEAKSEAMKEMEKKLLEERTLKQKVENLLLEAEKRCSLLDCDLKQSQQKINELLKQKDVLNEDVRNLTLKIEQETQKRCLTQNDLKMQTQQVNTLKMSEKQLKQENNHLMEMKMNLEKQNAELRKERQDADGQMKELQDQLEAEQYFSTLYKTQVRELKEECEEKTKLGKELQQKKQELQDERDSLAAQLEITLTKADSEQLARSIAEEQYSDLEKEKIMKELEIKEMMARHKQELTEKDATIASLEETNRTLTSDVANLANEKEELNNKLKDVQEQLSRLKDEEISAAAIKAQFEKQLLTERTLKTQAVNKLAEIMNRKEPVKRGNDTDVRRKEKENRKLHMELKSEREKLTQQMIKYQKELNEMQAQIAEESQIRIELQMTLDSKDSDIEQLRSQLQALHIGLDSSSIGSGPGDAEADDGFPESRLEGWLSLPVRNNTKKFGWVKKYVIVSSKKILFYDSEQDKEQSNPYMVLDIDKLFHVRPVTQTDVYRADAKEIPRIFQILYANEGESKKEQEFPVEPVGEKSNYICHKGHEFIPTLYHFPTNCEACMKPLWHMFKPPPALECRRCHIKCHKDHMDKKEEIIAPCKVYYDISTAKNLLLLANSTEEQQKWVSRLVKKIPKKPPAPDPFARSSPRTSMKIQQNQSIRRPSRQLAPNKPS

Structure (SMILES): O=c1[nH]c([C@@H]2CN(Cc3ccccc3)C[C@H]2c2ccccc2F)nc2ccc(-c3cn[nH]c3)cc12
pIC50 [1]: 7.31
pIC50 [2]: 6.63

Structure (SMILES): O=C(Cc1cccnc1)N[C@H](Cc1ccc(Cl)cc1)c1nc2ccc(-c3cn[nH]c3)cc2c(=O)[nH]1
pIC50 [1]: 6.62

Structure (SMILES): CCN[C@H](Cc1ccc(Cl)cc1)c1nc2ccc(-c3cn[nH]c3)cc2c(=O)[nH]1
pIC50 [1]: 7.85
pIC50 [2]: 7.77

Structure (SMILES): CCOc1ccc(C[C@H](N)c2nc3ccc(-c4cn[nH]c4)cc3c(=O)[nH]2)cc1
pIC50 [1]: 7.72
pIC50 [2]: 7.22

Structure (SMILES): COc1ccc(C[C@H](N)c2nc3ccc(-c4cn[nH]c4)cc3c(=O)[nH]2)cc1OC
pIC50 [1]: 7.41
pIC50 [2]: 7.42

Structure (SMILES): N[C@H](Cc1cccc(Cl)c1)c1nc2ccc(-c3cn[nH]c3)cc2c(=O)[nH]1
pIC50 [1]: 7.89
pIC50 [2]: 8.22

Structure (SMILES): N[C@H](Cc1cccc(C(F)(F)F)c1)c1nc2ccc(-c3cn[nH]c3)cc2c(=O)[nH]1
pIC50 [1]: 7.80
pIC50 [2]: 7.55

Structure (SMILES): N[C@@H](Cc1ccccc1)c1nc2ccc(-c3ccncc3)cc2c(=O)[nH]1
pIC50 [1]: 7.28
pIC50 [2]: 7.31

Structure (SMILES): COc1ccc(C(N)c2nc3ccc(-c4c[nH]nc4C)cc3c(=O)[nH]2)cc1 (centres undefined)
pIC50 [1]: 7.01

Structure (SMILES): COc1ccc(C(N)c2nc3ccc(-c4cn[nH]c4)cc3c(=O)[nH]2)cc1 (centres undefined)
inhibition at 10 µM (CYP2D6): 36%
pIC50 [3]: < 6.00
inhibition at 10 µM (CYP2C9): 37%
pIC50 [1]: 7.37
pIC50 [4]: 7.32
pIC50 [5]: < 6.00
inhibition at 10 µM (CYP1A2): -1%
inhibition at 10 µM (CYP3A4): 40%
pIC50 [2]: 7.70
pIC50 [6]: < 6.00
half-life [7]: 64 min
pIC50 [8]: < 6.00
pIC50 [9]: < 6.00

Structure (SMILES): O=c1[nH]c([C@@H]2CNC[C@H]2c2ccccc2)nc2ccc(-c3ccncc3)cc12
pIC50 [1]: 7.64
pIC50 [2]: 7.54

Compounds with a higher pIC50 [1], results first:

inhibition at 10 µM (CYP2D6): 89%
pIC50 [3]: < 6.00
inhibition at 10 µM (CYP2C9): 36%
pIC50 [1]: 8.10
pIC50 [4]: 8.10
pIC50 [5]: < 6.00
inhibition at 10 µM (CYP1A2): 19%
inhibition at 10 µM (CYP3A4): 37%
pIC50 [2]: 7.77
pIC50 [6]: < 6.00
half-life [7]: 65 min
pIC50 [8]: < 6.00
pIC50 [9]: < 6.00
Structure (SMILES): N[C@H](Cc1ccc(F)cc1)c1nc2ccc(-c3cn[nH]c3)cc2c(=O)[nH]1

pIC50 [1]: 8.10
pIC50 [2]: 7.59
Structure (SMILES): COc1cc(-c2cn[nH]c2)cc2c(=O)[nH]c([C@@H](N)Cc3cccc(F)c3)nc12

inhibition at 10 µM (CYP2D6): 76%
pIC50 [3]: < 6.00
inhibition at 10 µM (CYP2C9): 52%
pIC50 [1]: 8.40
pIC50 [4]: 7.80
pIC50 [5]: < 6.00
inhibition at 10 µM (CYP1A2): 10%
inhibition at 10 µM (CYP3A4): 53%
pIC50 [2]: 8.10
pIC50 [6]: < 6.00
half-life [7]: 21 min
pIC50 [8]: < 6.00
pIC50 [9]: < 6.00
Structure (SMILES): COc1ccc(C[C@H](N)c2nc3ccc(-c4cn[nH]c4)cc3c(=O)[nH]2)cc1

pIC50 [1]: 8.15
pIC50 [2]: 7.92
Structure (SMILES): N[C@H](Cc1ccc(F)c(F)c1)c1nc2ccc(-c3cn[nH]c3)cc2c(=O)[nH]1

pIC50 [1]: 8.00
pIC50 [2]: 8.05
Structure (SMILES): N[C@H](Cc1cccc(F)c1)c1nc2ccc(-c3cn[nH]c3)cc2c(=O)[nH]1

pIC50 [1]: 7.92
pIC50 [2]: 8.15
Structure (SMILES): N[C@@H](Cc1ccccc1)c1nc2ccc(-c3cn[nH]c3)cc2c(=O)[nH]1

pIC50 [1]: 8.22
pIC50 [2]: 8.00
Structure (SMILES): Nc1nccc(-c2ccc3nc([C@@H]4CNC[C@H]4c4ccccc4)[nH]c(=O)c3c2)n1

pIC50 [1]: 8.15
pIC50 [2]: 8.15
Structure (SMILES): Cc1n[nH]cc1-c1ccc2nc([C@@H]3CNC[C@H]3c3ccccc3)[nH]c(=O)c2c1

inhibition at 10 µM (CYP2D6): 78%
pIC50 [3]: < 6.00
inhibition at 10 µM (CYP2C9): 54%
pIC50 [1]: 8.22
pIC50 [5]: < 6.00
inhibition at 10 µM (CYP1A2): 51%
inhibition at 10 µM (CYP3A4): 42%
pIC50 [2]: 8.15
pIC50 [10]: 6.52
pIC50 [6]: < 6.00
half-life [7]: 47 min
pIC50 [8]: < 6.00
pIC50 [9]: < 6.00
Structure (SMILES): N[C@@H](Cc1ccc(Cl)cc1)c1nc2ccc(-c3cn[nH]c3)cc2c(=O)[nH]1

pIC50 [1]: 8.40
pIC50 [2]: 8.30
Structure (SMILES): N[C@H](Cc1ccc(Cl)cc1)c1nc2ccc(-c3cn[nH]c3)cc2c(=O)[nH]1
